According to ChEMBL document CHEMBL2439953, “Dimeric argininamide-type neuropeptide Y receptor antagonists: chiral discrimination between Y1 and Y4 receptors” (Bioorg Med Chem, 2013):

Columns and labels:
[1] = biological target: T1, Neuropeptide Y receptor type 4 (Homo sapiens, UniProt P50391); assay: Binding affinity to human neuropeptide Y receptor type 4 receptor expressed in CHO cells using Cy5-[K4]-hPP by flow cytometric analysis; format: cell-based
[2] = biological target: T2, Neuropeptide Y receptor type 1 (Homo sapiens, UniProt P25929); assay: Displacement of [3H]UR-MK114 from human neuropeptide Y receptor type 1 expressed in human SK-N-MC cells; format: cell-based
T2 sequence (P25929 whole entry): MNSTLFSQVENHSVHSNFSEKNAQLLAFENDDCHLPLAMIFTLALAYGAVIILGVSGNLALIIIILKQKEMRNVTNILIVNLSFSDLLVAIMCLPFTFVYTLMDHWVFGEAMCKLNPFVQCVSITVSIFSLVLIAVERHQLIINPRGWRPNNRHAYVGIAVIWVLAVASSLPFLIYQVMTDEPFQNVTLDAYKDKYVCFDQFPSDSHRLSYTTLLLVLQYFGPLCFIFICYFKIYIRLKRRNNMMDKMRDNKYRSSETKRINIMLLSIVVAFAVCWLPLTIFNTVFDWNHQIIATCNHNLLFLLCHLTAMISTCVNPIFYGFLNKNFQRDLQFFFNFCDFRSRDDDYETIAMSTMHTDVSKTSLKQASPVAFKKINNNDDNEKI

[3] = biological target: T3, Neuropeptide Y receptor type 5 (Homo sapiens, UniProt Q15761); assay: Binding affinity to human neuropeptide Y receptor type 5 receptor expressed in HEC-1B cells using Cy5-pNPY by flow cytometric analysis; format: cell-based
T3 sequence (Q15761 whole entry): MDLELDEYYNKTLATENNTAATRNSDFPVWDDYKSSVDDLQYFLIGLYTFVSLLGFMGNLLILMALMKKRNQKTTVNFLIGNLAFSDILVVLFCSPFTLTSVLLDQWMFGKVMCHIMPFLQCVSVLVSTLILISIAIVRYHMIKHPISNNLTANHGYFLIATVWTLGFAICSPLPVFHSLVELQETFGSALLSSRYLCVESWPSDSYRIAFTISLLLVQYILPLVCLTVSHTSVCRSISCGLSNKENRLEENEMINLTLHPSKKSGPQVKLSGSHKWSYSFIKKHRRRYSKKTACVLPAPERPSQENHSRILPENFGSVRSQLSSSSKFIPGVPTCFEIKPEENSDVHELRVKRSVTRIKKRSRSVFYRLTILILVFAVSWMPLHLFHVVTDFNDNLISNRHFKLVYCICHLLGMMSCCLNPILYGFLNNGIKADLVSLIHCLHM

[4] = biological target: T1, Neuropeptide Y receptor type 4; assay: Antagonist activity at human neuropeptide Y receptor type 4 expressed in CHO cells co-expressing Gqi5-mtAEQ assessed as inhibition of hPP-induced calcium mobilization by Aequorin assay; format: functional, cell-based
[5] = biological target: T4, Neuropeptide Y receptor type 2 (Homo sapiens, UniProt P49146); assay: Binding affinity to human neuropeptide Y receptor type 2 receptor expressed in CHO cells using Cy5-pNPY by flow cytometric analysis; format: cell-based
T4 sequence (P49146 whole entry): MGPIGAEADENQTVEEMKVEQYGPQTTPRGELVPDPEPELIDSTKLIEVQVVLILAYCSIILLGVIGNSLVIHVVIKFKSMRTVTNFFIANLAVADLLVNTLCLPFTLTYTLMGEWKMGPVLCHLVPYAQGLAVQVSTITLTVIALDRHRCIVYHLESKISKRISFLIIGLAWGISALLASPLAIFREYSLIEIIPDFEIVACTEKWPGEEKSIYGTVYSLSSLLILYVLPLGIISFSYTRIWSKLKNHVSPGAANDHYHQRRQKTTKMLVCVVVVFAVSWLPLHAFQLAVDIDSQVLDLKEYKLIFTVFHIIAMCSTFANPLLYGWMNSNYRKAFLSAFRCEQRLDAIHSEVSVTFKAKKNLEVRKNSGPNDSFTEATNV

T1 sequence (P50391 whole entry): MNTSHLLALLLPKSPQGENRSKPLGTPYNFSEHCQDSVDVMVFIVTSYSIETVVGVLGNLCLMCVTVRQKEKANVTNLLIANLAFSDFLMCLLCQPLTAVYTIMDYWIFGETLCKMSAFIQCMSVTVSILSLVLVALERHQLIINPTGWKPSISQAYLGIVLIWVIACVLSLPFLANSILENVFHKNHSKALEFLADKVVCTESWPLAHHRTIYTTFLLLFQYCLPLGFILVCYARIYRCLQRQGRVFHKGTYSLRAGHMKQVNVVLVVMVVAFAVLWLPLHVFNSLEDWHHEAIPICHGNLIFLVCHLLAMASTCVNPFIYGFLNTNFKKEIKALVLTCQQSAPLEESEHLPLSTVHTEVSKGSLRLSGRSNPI

SMILES	Ki [1] [nM]	Ki [2] [nM]	Ki [3] [nM]	Kb [4] [nM]	Ki [5] [nM]
NCCCCNC(=O)/N=C(/N)NCCC[C@@H](NC(=O)C(c1ccccc1)c1ccccc1)C(=O)NCc1ccc(O)cc1	> 5000	–	–	–	–
CCC(=O)NCC(=O)NCCCCNC(=O)NCc1ccc(CNC(=O)[C@@H](CCCNC(=N)N)NC(=O)C(c2ccccc2)c2ccccc2)cc1	–	73	–	–	–
NCCNC(=O)CCC(=O)NCCNC(=O)/N=C(\N)NCCC[C@@H](NC(=O)C(c1ccccc1)c1ccccc1)C(=O)NCc1ccc(CNC(N)=O)cc1	> 5000	360	–	–	–
N=C(N)NCCOCCOCCNC(=O)/N=C(/N)NCCC[C@@H](NC(=O)C(c1ccccc1)c1ccccc1)C(=O)NCc1ccc(O)cc1	3800	130	> 5000	–	–
NC(=NCCC[C@@H](NC(=O)C(c1ccccc1)c1ccccc1)C(=O)NCc1ccc(O)cc1)NC(=O)CCCCCCC(=O)NC(N)=NCCC[C@@H](NC(=O)C(c1ccccc1)c1ccccc1)C(=O)NCc1ccc(O)cc1	2000	63	–	–	–
NCCC(=O)NCCNC(=O)CCC(=O)NCCNC(=O)/N=C(\N)NCCC[C@H](NC(=O)C(c1ccccc1)c1ccccc1)C(=O)NCc1ccc(CNC(N)=O)cc1	3300	> 5000	> 5000	> 5000	> 5000
N=C(N)NCCC[C@@H](NC(=O)C(c1ccccc1)c1ccccc1)C(=O)NCc1ccc(CNC(=O)NCCCCNC(=O)CNC(=O)CCC(=O)NCCN(CCN)CCNC(=O)CCC(=O)NCC(=O)NCCCCNC(=O)NCc2ccc(CNC(=O)[C@@H](CCCNC(=N)N)NC(=O)C(c3ccccc3)c3ccccc3)cc2)cc1	2200	200	> 5000	900	2300
N=C(N)NCCC[C@@H](NC(=O)C(c1ccccc1)c1ccccc1)C(=O)NCc1ccc(O)cc1	> 5000	–	–	–	–
NCCC(=O)NCCNC(=O)CCC(=O)NCCNC(=O)CCC(=O)NCCNC(=O)/N=C(\N)NCCC[C@@H](NC(=O)C(c1ccccc1)c1ccccc1)C(=O)NCc1ccc(CNC(N)=O)cc1	> 5000	1200	–	–	–
N=C(N)NCCC[C@@H](NC(=O)C(c1ccccc1)c1ccccc1)C(=O)NCc1ccc(CNC(=O)NCCCCNC(=O)NCCN)cc1	–	890	–	–	–
NCCCOCCOCCOCCNC(=O)CCC(=O)NCCNC(=O)/N=C(\N)NCCC[C@@H](NC(=O)C(c1ccccc1)c1ccccc1)C(=O)NCc1ccc(CNC(N)=O)cc1	> 5000	71	–	–	–
NCCOCCOCCNC(=O)CCC(=O)NCCNC(=O)/N=C(\N)NCCC[C@H](NC(=O)C(c1ccccc1)c1ccccc1)C(=O)NCc1ccc(CNC(N)=O)cc1	3200	> 5000	> 5000	> 5000	> 5000
NCCNC(=O)CCC(=O)NCCNC(=O)/N=C(\N)NCCC[C@H](NC(=O)C(c1ccccc1)c1ccccc1)C(=O)NCc1ccc(CNC(N)=O)cc1	4100	> 5000	–	> 5000	> 5000
NCCCCCCNC(=O)/N=C(/N)NCCC[C@H](NC(=O)CC1(CC(=O)N2CCN(C3c4ccccc4NC(=O)c4ccccc43)CC2)CCCC1)C(=O)NCCn1c(=O)n(-c2ccccc2)n(-c2ccccc2)c1=O (some centres undefined)	–	> 5000	–	–	7
NCCOCCOCCNC(=O)CCC(=O)NCCNC(=O)/N=C(\N)NCCC[C@@H](NC(=O)C(c1ccccc1)c1ccccc1)C(=O)NCc1ccc(CNC(N)=O)cc1	> 5000	77	–	–	–
N=C(N)NCCC[C@@H](NC(=O)C(c1ccccc1)c1ccccc1)C(=O)NCc1ccc(CNC(=O)NCCCCNC(=O)CN)cc1	–	14	–	–	–
N=C(N)NCCC[C@@H](NC(=O)C(c1ccccc1)c1ccccc1)C(=O)NCc1ccc(CNC(=O)NCCCCN)cc1	> 5000	41	–	> 5000	–

SMILES	Ki [1] [nM]	Ki [2] [nM]	Ki [3] [nM]	Kb [4] [nM]	Ki [5] [nM]
NCCC(=O)NCCNC(=O)CCC(=O)NCCNC(=O)CCC(=O)NCCNC(=O)/N=C(\N)NCCC[C@H](NC(=O)C(c1ccccc1)c1ccccc1)C(=O)NCc1ccc(CNC(N)=O)cc1	3500	> 5000	> 5000	> 5000	> 5000
NCCOCCOCCNC(=O)/N=C(/N)NCCC[C@H](NC(=O)C(c1ccccc1)c1ccccc1)C(=O)NCc1ccc(O)cc1	–	> 5000	> 5000	–	> 5000
NCCCCCCNC(=O)/N=C(/N)NCCC[C@@H](NC(=O)C(c1ccccc1)c1ccccc1)C(=O)NCc1ccc(CNC(N)=O)cc1	> 5000	200	–	> 5000	–
NCCNC(=O)CCC(=O)NCCNC(=O)CCC(=O)NCCNC(=O)/N=C(\N)NCCC[C@H](NC(=O)C(c1ccccc1)c1ccccc1)C(=O)NCc1ccc(CNC(N)=O)cc1	> 5000	> 5000	> 5000	> 5000	> 5000
NCCOCCOCCNC(=O)/N=C(/N)NCCC[C@@H](NC(=O)C(c1ccccc1)c1ccccc1)C(=O)NCc1ccc(CNC(N)=O)cc1	–	31	–	–	–
NCCCOCCOCCOCCNC(=O)CCC(=O)NCCNC(=O)/N=C(\N)NCCC[C@H](NC(=O)C(c1ccccc1)c1ccccc1)C(=O)NCc1ccc(CNC(N)=O)cc1	3700	> 5000	> 5000	> 5000	> 5000
NCCNC(=O)CCC(=O)NCCNC(=O)CCC(=O)NCCNC(=O)/N=C(\N)NCCC[C@@H](NC(=O)C(c1ccccc1)c1ccccc1)C(=O)NCc1ccc(CNC(N)=O)cc1	> 5000	1000	–	–	–
N=C(N)NCCCC(NC(=O)CC1(CC(=O)N2CCN(C3c4ccccc4NC(=O)c4ccccc43)CC2)CCCC1)C(=O)NCCn1c(=O)n(-c2ccccc2)n(-c2ccccc2)c1=O (single isomer, unassigned)	> 7500	> 5000	> 5000	–	–
NCCN(CCNC(=O)CCC(=O)NCCCCCCNC(=O)/N=C(/N)NCCC[C@@H](NC(=O)C(c1ccccc1)c1ccccc1)C(=O)NCc1ccc(O)cc1)CCNC(=O)CCC(=O)NCCCCCCNC(=O)/N=C(/N)NCCC[C@@H](NC(=O)C(c1ccccc1)c1ccccc1)C(=O)NCc1ccc(O)cc1	270	40	> 5000	33	1300
NCCN(CCNC(=O)c1ccc(C(=O)NCCOCCOCCNC(=O)/N=C(/N)NCCC[C@H](NC(=O)C(c2ccccc2)c2ccccc2)C(=O)NCc2ccc(O)cc2)cc1)CCNC(=O)c1ccc(C(=O)NCCOCCOCCNC(=O)/N=C(/N)NCCC[C@H](NC(=O)C(c2ccccc2)c2ccccc2)C(=O)NCc2ccc(O)cc2)cc1	260	> 5000	> 5000	27	1400
NCCC(=O)NCCNC(=O)CCC(=O)NCCNC(=O)/N=C(\N)NCCC[C@@H](NC(=O)C(c1ccccc1)c1ccccc1)C(=O)NCc1ccc(CNC(N)=O)cc1	> 5000	86	–	–	–
NCCN(CCNC(=O)c1ccc(C(=O)NCCCCNC(=O)/N=C(/N)NCCC[C@@H](NC(=O)C(c2ccccc2)c2ccccc2)C(=O)NCc2ccc(O)cc2)cc1)CCNC(=O)c1ccc(C(=O)NCCCCNC(=O)/N=C(/N)NCCC[C@@H](NC(=O)C(c2ccccc2)c2ccccc2)C(=O)NCc2ccc(O)cc2)cc1	210	53	> 5000	34	780
NCCCCCCNC(=O)/N=C(/N)NCCC[C@@H](NC(=O)C(c1ccccc1)c1ccccc1)C(=O)NCc1ccc(O)cc1	–	9.9	–	–	–
N=C(N)NCCC[C@@H](NC(=O)C(c1ccccc1)c1ccccc1)C(=O)NCc1ccc(CNC(N)=O)cc1	> 5000	–	–	> 5000	–
NCCOCCOCCNC(=O)/N=C(/N)NCCC[C@@H](NC(=O)C(c1ccccc1)c1ccccc1)C(=O)NCc1ccc(O)cc1	> 5000	7.3	> 5000	–	> 5000
NC(N)=NCCC[C@H](NC(=O)C(c1ccccc1)c1ccccc1)C(=O)NCc1ccc(O)cc1	> 5000	–	–	–	–
NCCN(CCNC(=O)CCCCC(=O)NCCCCNC(=O)/N=C(/N)NCCC[C@@H](NC(=O)C(c1ccccc1)c1ccccc1)C(=O)NCc1ccc(O)cc1)CCNC(=O)CCCCC(=O)NCCCCNC(=O)/N=C(/N)NCCC[C@@H](NC(=O)C(c1ccccc1)c1ccccc1)C(=O)NCc1ccc(O)cc1	550	42	> 5000	32	1000
